Measurements published in publication PMC12040169 (PLOS Biology, 2025).

Experiment: in vitro
Conditions: human, hela cells, % viability

SMILES	viability at 28.5 h, 10 µM [%]
Cn1ccc(C(=O)NC(Cc2ccsc2)c2cccnc2)n1 (centres unmarked) [CBK285117]	107
Cn1cc(Cl)c(C2CCCCCN2C(=O)c2cc(C3CC3)on2)n1 (centres unmarked) [CBK285120]	109
Cc1csc(C(Cc2ccsc2)NC(=O)C2CCCO2)n1 (centres unmarked) [CBK285122]	107
Cc1csc(C(Cc2cccs2)NC(=O)CN(C)C)n1 (centres unmarked) [CBK285124]	97.9
Cc1nonc1CC(=O)N[C@H]1C2CCCCC2[C@@H]1c1ccccc1 (some centres unmarked) [CBK285126]	102
O=C(c1ccc(F)cc1)c1cn(CCO)c2c(Cl)nccc12 [CBK285129]	106
O=C(NC(Cc1cccs1)c1nccs1)c1ccncc1 (centres unmarked) [CBK285134]	93.9
O=C(Cn1cccn1)NC(Cc1cccs1)c1nccs1 (centres unmarked) [CBK285136]	94.4
Cn1cc(C(=O)NC(Cc2ccsc2)c2nccs2)ccc1=O (centres unmarked) [CBK285140]	98.5
C=CCn1cc(CN2CCCC(O)(c3ccc(F)cc3)CC2)c(C)n1 (centres unmarked) [CBK285144]	92
Cn1ncc(Cl)c1C1CCCCCN1C(=O)c1cccnc1 (centres unmarked) [CBK285146]	108
Cc1csc(C(Cc2ccsc2)NC(=O)c2cnn(C)c2C)n1 (centres unmarked) [CBK285148]	104
Cc1csc(C(Cc2ccsc2)NC(=O)CCn2cccn2)n1 (centres unmarked) [CBK285149]	93.7
Cc1csc(C(Cc2ccsc2)NC(=O)C2CCOC2)n1 (centres unmarked) [CBK285150]	94.9
Cc1cnn(CC(=O)NC(Cc2ccsc2)c2nc(C)cs2)c1 (centres unmarked) [CBK285151]	86.6
Cc1ncccc1C(=O)NC(Cc1cccs1)c1nccs1 (centres unmarked) [CBK285153]	91.4
O=C(c1cccnc1)N1CCCC(c2cc3ccccc3cn2)C1 (centres unmarked) [CBK285154]	98.6
Cn1cc(C(=O)N2CCCC(c3cc4ccccc4cn3)C2)cn1 (centres unmarked) [CBK285155]	106
CCc1cc(C(=O)N2CCCC(c3cc4ccccc4cn3)C2)on1 (centres unmarked) [CBK285156]	101
O=C(Cn1c(C2CCOCC2)cc2cccnc21)NC1CCCC1 [CBK285157]	86.3
O=C(CCCn1ccnc1)NC(Cc1ccsc1)c1cccnc1 (centres unmarked) [CBK285158]	94.9
c1ccc([C@@H]2CN(Cc3cccnc3)C[C@H]2c2cc[nH]n2)cc1 [CBK285160]	88.9
C[C@H]1CN2C[C@H](O)CC2CN1Cc1cccn1Cc1ccccc1F (some centres unmarked) [CBK285165]	88.7

SMILES	viability at 28.5 h, 10 µM [%]
O=C(c1ccncc1)N1CCCC(c2cc3ccccc3cn2)C1 (centres unmarked) [CBK285166]	87
Cc1cnc2[nH]c(C(F)(F)F)c(CN3CCCC(CO)C3)c2c1 (centres unmarked) [CBK285167]	93.6
Cc1cnc2[nH]c(C3CCCN(C(=O)c4cn(C)nc4C)C3)cc2c1 (centres unmarked) [CBK285170]	110
Cc1cnc2[nH]c(C3CCCN(C(=O)c4cnn(C)c4C)C3)cc2c1 (centres unmarked) [CBK285171]	101
COCC(C)NC(=O)CCn1ccc2ccncc21 (centres unmarked) [CBK285172]	93.8
CC1(C)CCCN(C(=O)CCn2ccc3ccncc32)C1 [CBK285173]	87.3
CCC1(CC)CCN(C(=O)CCn2ccc3ccncc32)C1 [CBK285176]	84.9
CC(=O)N1CCCC(c2cc3cccnc3n2CC(=O)N(C)C)C1 (centres unmarked) [CBK285177]	106
Cc1ccnn1CCC(=O)N1CCCC1c1nc2ccccc2[nH]1 (centres unmarked) [CBK285178]	110
Cn1cc([C@@H]2CN(Cc3ccc(F)c(F)c3)C[C@H]2N)c2ccncc21 [CBK285179]	88.3
Cc1ccc(CN2C[C@@H](N)[C@H](c3cn(C)c4cnccc34)C2)o1 [CBK285180]	84.2
O=C(c1cccs1)N1CCC(c2onc3c2CCCC3)CC1 [CBK285181]	93.3
COC(=O)C1(Cc2cc(-c3ccccc3F)no2)CCOCC1 [CBK285182]	87.8
Cc1ccn2cc(-c3ccc4c(c3)CC(C)N4S(C)(=O)=O)nc2c1 (centres unmarked) [CBK285183]	84.6
Cc1ccc2nc(-c3ccc4c(c3)CC(C)N4S(C)(=O)=O)cn2c1 (centres unmarked) [CBK285184]	79.4
CCOC(=O)CC(=O)N1CCC(c2onc3c2CC(C)CC3)CC1 (centres unmarked) [CBK285187]	100
CN(C)CC1CN(C(=O)c2ccccc2F)Cc2ccccc2O1 (centres unmarked) [CBK285188]	86.9
O=C(C1CC1)N1CCc2cc(-c3cn4ccccc4n3)ccc21 [CBK285193]	99.2
CC1Cc2cc(-c3cn4ccccc4n3)ccc2N1S(C)(=O)=O (centres unmarked) [CBK285194]	94.3
Cc1c(C(=O)N2CCC(c3nc(C)n4ccsc34)CC2)cnn1C [CBK285201]	111
OC1(c2cccnc2)C2CCCC1CN(Cc1cccc(F)c1F)C2 (centres unmarked) [CBK285205]	88.1
Cn1ccnc1C1(O)C2CCCC1CN(Cc1ccccc1F)C2 (centres unmarked) [CBK285206]	97.2
Cn1nccc1C(=O)NC(Cc1cccs1)c1ccccn1 (centres unmarked) [CBK285207]	96.1

SMILES	viability at 28.5 h, 10 µM [%]
Cc1ccc(C(=O)NC(Cc2cccs2)c2ccccn2)c(=O)[nH]1 (centres unmarked) [CBK285210]	89.8
Cc1ccn2cc(-c3ccc4c(c3)CCN4S(C)(=O)=O)nc2c1 [CBK285221]	88.3
O=C(NC1CC1)C1(Cc2ccccc2-c2cccnc2)CCOCC1 [CBK285222]	88.7
CC(=O)N1CCc2cc(-c3cc4ccccn4c3)ccc21 [CBK285224]	104
Cc1cccn2cc(-c3ccc4c(c3)CCN4S(C)(=O)=O)cc12 [CBK285226]	95.5
CC(=O)N1CCc2cc(-c3cc4cc(C)ccn4c3)ccc21 [CBK285228]	75.2
Cn1ncc2c1CCCN(C(=O)COc1ccc(F)cc1F)C2 [CBK285229]	90.6
CC(Oc1ccc(F)cc1)C(=O)N1CCCc2c(cnn2C)C1 (centres unmarked) [CBK285230]	82.1
Cn1ncc2c1CCCN(C(=O)Cc1ccc(Cl)cc1)C2 [CBK285231]	106
CC1CCc2noc(C3CCN(C(=O)c4ccnn4C)CC3)c2C1 (centres unmarked) [CBK285232]	105
Cc1nc(C2CCCN(C(=O)c3cccnc3)C2)c2sccn12 (centres unmarked) [CBK285233]	93
Cc1nc(C2CCCN(C(=O)c3ccnn3C)C2)c2sccn12 (centres unmarked) [CBK285235]	87.2
Cc1csc2c(C3CCCN(C(=O)c4cc[nH]n4)C3)nc(C)n12 (centres unmarked) [CBK285238]	88.1
Cc1nc(C2CCN(C(=O)c3cscn3)CC2)c2sccn12 [CBK285240]	107
Cc1csc2c(C3CCN(C(=O)c4cccnc4)CC3)nc(C)n12 [CBK285242]	85.1
Cc1csc2c(C3CCN(C(=O)c4ccncc4)CC3)nc(C)n12 [CBK285243]	84.4
Cc1cc(C(=O)N2CCC(c3nc(C)n4c(C)csc34)CC2)on1 [CBK285247]	99.3
Cc1csc2c(C3CCN(C(=O)c4ccnn4C)CC3)nc(C)n12 [CBK285249]	94.3
Cc1ccn2cc(-c3ccc4c(c3)CC(C)N4S(C)(=O)=O)cc2c1 (centres unmarked) [CBK285253]	89
Cn1ncc2c1CCCN(C(=O)CCc1ccccc1F)C2 [CBK285255]	96.8
CS(=O)(=O)N1CCc2cc(-c3cc4ccccn4c3)ccc21 [CBK285256]	107
CCCC(=O)N1CCC(c2nc3ccccc3cc2NC(C)=O)CC1 [CBK285258]	78.4
COc1ccc(-c2cc(C3CCN(C(=O)C4CC4)C3)[nH]n2)cc1 (centres unmarked) [CBK285263]	91.5

SMILES	viability at 28.5 h, 10 µM [%]
CCNC(=O)[C@H]1CN(Cc2ccccc2)C[C@@H]1C(=O)c1ccccc1 [CBK285265]	88.1
Cc1ccc(C(=O)N2C[C@H]3CC[C@](O)(c4ccc(F)cc4)[C@H]3C2)o1 [CBK285267]	95
Cn1ccc(C(=O)NC(Cc2ccsc2)c2ccccn2)cc1=O (centres unmarked) [CBK285273]	97.5
COCC(=O)N1CCc2cc(-c3cn4ccccc4n3)ccc21 [CBK285274]	81.9
CC(=O)N1C[C@H]2CCCN(S(=O)(=O)c3cccs3)[C@H]2C1 [CBK285275]	84.3
Cc1cc(OCC(=O)N2CCCc3c(cnn3C)C2)ccc1Cl [CBK285277]	93.3
Cn1ncc2c1CCCN(C(=O)CCCOc1ccccc1F)C2 [CBK285278]	85
CS(=O)(=O)N1C2CCC(C2)[C@H]1COc1ccc(F)cc1 (some centres unmarked) [CBK285279]	108
CCS(=O)(=O)N1C2CCC(C2)[C@H]1COc1ccc(F)cc1 (some centres unmarked) [CBK285280]	109
COc1ccc(-c2cc(C3CCN(C4CCSCC4)C3)[nH]n2)cc1 (centres unmarked) [CBK285282]	99.3
COc1ccc(CC(=O)N2CCCc3c(cnn3C)C2)cc1F [CBK285285]	87.9
Cn1ncc2c1CCCN(C(=O)COc1ccc(C(C)(C)C)cc1)C2 [CBK285286]	115
Cc1ccc(OCCCC(=O)N2CCCc3c(cnn3C)C2)c(C)c1 [CBK285288]	96.9
Cc1cnccc1CN1CCC[C@@H]2CN(C(=O)CC(C)C)C[C@@H]21 [CBK285289]	104
Cc1cccc(CN2CCC[C@@H]3CN(C(=O)CC(C)C)C[C@@H]32)n1 [CBK285291]	108
CC(C)S(=O)(=O)N1C2CCC(C2)[C@@H]1COc1ccc(F)cc1 (some centres unmarked) [CBK285292]	101
CC(=O)N1C[C@H]2CCCN(S(=O)(=O)c3ccc(Cl)s3)[C@H]2C1 [CBK285293]	105
CC(C)N1C[C@@H](C(=O)NC(C)(C)C)[C@@]2(Cc3ccccc3C(=O)N2)C1 [CBK285295]	101
CCS(=O)(=O)N1C[C@H]2CC[C@](O)(c3ccc(C)cc3)[C@H]2C1 [CBK285296]	107
Cc1sc2c(C3CCN(C(=O)C4CC4)CC3)nc(C)n2c1C [CBK285298]	101
Cc1sc2c(C3CCN(C(=O)C4CC4C)CC3)nc(C)n2c1C (centres unmarked) [CBK285299]	66.4
O=c1c2cc(F)ccc2nc2n1CCN(Cc1ccccc1)CC2 [CBK285300]	94.5
Cc1ccc2c(c1)c(=O)cc(C(F)(F)F)n2C[C@H]1CCCN1 [CBK285303]	36.2
